Measured values published in patent US20170129919A1, “CYCLIC DIPEPTIDE-CONTAINING COMPOSITION” (Suntory Holdings Limited, priority 2014, published 2017).
Values after ≈ are worked out from the molar mass of the structure shown. Where two headings read alike, the source gives them in different places.

Assays:
xanthine oxidase (XO) = assay: In vitro xanthine oxidase (XO) inhibiting action; assay type: biochemical; conditions: for IC50: PBS pH 7.5, xanthine substrate, absorbance at 295 nm after 30 minutes, mean±standard error; for Inhibition Rate (%) at Concentration of 100 μM: Table 2, XO inhibition at 100 μM; for action of inhibiting a xanthine oxidase (in words): summary of Tables 1 to 3
Procedure: The in vitro xanthine oxidase (XO) inhibiting action was studied on 210 kinds of cyclic dipeptides, linear dipeptides Tyr-Gly and Gly-Tyr, and an amino acid Tyr. […] Thereafter, 20 μL of a 250 μM xanthine solution previously dissolved in the PBS was added thereto, and the absorbance after 30 minutes was measured using a spectrophotometer (Synegy HT, manufactured by Bio Tek). The XO inhibition rate (%) at each concentration was calculated by the following calculation formula, to obtain activities of inhibiting XO (IC50 values).

Solubility in water = assay type: physicochemical; conditions: Table 5; for Solubility in Water: distilled water, 25° C., ultrasonication 30 minutes, visual examination, tested at 5, 1, 0.1, 0.01 mM, insoluble = not dissolved at 0.01 mM
Procedure: Concretely, each compound was added to distilled water (manufactured by Otsuka Pharmaceutical Co., Ltd.) at an ambient temperature (25° C.) so as to have a final concentration of 5 mM, and the mixture was stirred under ultrasonication for 30 minutes to dissolve. […] However, none of the compounds dissolved, so that distilled water was further added thereto so as to have a final concentration of 0.01 mM, and the mixture was stirred under ultrasonication for 30 minutes, but still no compounds dissolved.

[1] = Table 3, read-out: IC50 (Activity of Inhibiting XO of Phe-Containing Cyclic Dipeptides)
[2] = Table 1, read-out: IC50 (Activity of Inhibiting XO of Tyr-Containing Cyclic Dipeptides)

Compound: NC(=O)CC1NC(=O)C(Cc2ccccc2)NC1=O (stereo not shown) [Cyclo(Asn-Phe), reference compound]
- IC50 (xanthine oxidase (XO); [1]): > 300 µM

Compound: CC1NC(=O)C(Cc2ccccc2)NC1=O (stereo not shown) [Cyclo(Ala-Phe), reference compound]
- IC50 (xanthine oxidase (XO); [1]): > 100 µM

Compound: O=C1N[C@@H](Cc2c[nH]cn2)C(=O)N[C@H]1Cc1ccc(O)cc1 [Cyclo(His-Tyr), cyclohistidyltyrosine]
- Inhibition Rate (%) at Concentration of 100 μM (xanthine oxidase (XO)): 3.2%
- solubility in water (in words) (Solubility in water): high solubility in water
- Solubility in Water (Solubility in water): 1000 µM (≈ 300 µg/mL)

Compound: CSCCC1NC(=O)C(Cc2ccc(O)cc2)NC1=O (stereo not shown) [Cyclo(Met-Tyr), cyclomethionyltyrosine]
- IC50 (xanthine oxidase (XO); [2]): 56.4 ± 2.9 µM
- solubility in water (in words) (Solubility in water): high solubility in water
- Solubility in Water (Solubility in water): 5000 µM (≈ 1470 µg/mL)

Compound: cyclotryptophanyltyrosine [Cyclo(Trp-Tyr)]
- Inhibition Rate (%) at Concentration of 100 μM (xanthine oxidase (XO)): 19.1%
- Solubility in Water (Solubility in water): insoluble

Compound: O=C(O)CCC1NC(=O)C(Cc2ccccc2)NC1=O (stereo not shown) [Cyclo(Glu-Phe), reference compound]
- IC50 (xanthine oxidase (XO); [1]): > 100 µM

Compound: NC(=O)CC[C@@H]1NC(=O)[C@H](Cc2ccc(O)cc2)NC1=O [Cyclo(Gln-Tyr), cycloglutaminyltyrosine]
- Inhibition Rate (%) at Concentration of 100 μM (xanthine oxidase (XO)): 42.6%
- solubility in water (in words) (Solubility in water): high solubility in water
- Solubility in Water (Solubility in water): 1000 µM (≈ 291 µg/mL)

Compound: O=C1NC(Cc2ccccc2)C(=O)NC1CO (stereo not shown) [Cyclo(Ser-Phe), reference compound]
- IC50 (xanthine oxidase (XO); [1]): > 300 µM

Compound: CC(C)CC1NC(=O)C(Cc2ccccc2)NC1=O (stereo not shown) [Cyclo(Leu-Phe), reference compound]
- IC50 (xanthine oxidase (XO); [1]): > 100 µM

Compound: O=C1NC(Cc2c[nH]c3ccccc23)C(=O)NC1Cc1ccccc1 (stereo not shown) [Cyclo(Trp-Phe), reference compound]
- IC50 (xanthine oxidase (XO); [1]): > 100 µM

Compound: CCC(C)C1NC(=O)C(Cc2ccc(O)cc2)NC1=O (stereo not shown) [Cyclo(Ile-Tyr), cycloisoleucyltyrosine]
- IC50 (xanthine oxidase (XO); [2]): 86.7 ± 2.8 µM
- solubility in water (in words) (Solubility in water): high solubility in water
- Solubility in Water (Solubility in water): 1000 µM (≈ 276 µg/mL)

Compound: CC(C)C1NC(=O)C(Cc2ccccc2)NC1=O (stereo not shown) [Cyclo(Val-Phe), reference compound]
- IC50 (xanthine oxidase (XO); [1]): 60.5 ± 2.4 µM

Compound: O=C1CNC(=O)C(Cc2ccccc2)N1 (stereo not shown) [Cyclo(Phe-Gly), reference compound]
- IC50 (xanthine oxidase (XO); [1]): > 100 µM

Compound: N=C(N)NCCCC1NC(=O)C(Cc2ccccc2)NC1=O (stereo not shown) [Cyclo(Arg-Phe), reference compound]
- IC50 (xanthine oxidase (XO); [1]): > 300 µM

Compound: CCC(C)C1NC(=O)C(Cc2ccccc2)NC1=O (stereo not shown) [Cyclo(Ile-Phe), reference compound]
- IC50 (xanthine oxidase (XO); [1]): > 100 µM

Compound: O=C1N[C@@H](Cc2ccc(O)cc2)C(=O)N[C@H]1Cc1ccccc1 [Cyclo(Phe-Tyr), cyclophenylalanyltyrosine]
- IC50 (xanthine oxidase (XO); [2]): 22.2 ± 0.8 µM
- IC50 (xanthine oxidase (XO); [1]): 22.2 ± 0.8 µM
- action of inhibiting a xanthine oxidase (in words) (xanthine oxidase (XO)): high action of inhibiting a xanthine oxidase
- Solubility in Water (Solubility in water): insoluble

Compound: CSCCC1NC(=O)C(Cc2ccccc2)NC1=O (stereo not shown) [Cyclo(Met-Phe), reference compound]
- IC50 (xanthine oxidase (XO); [1]): > 100 µM

Compound: cycloleucyltyrosine [Cyclo(Leu-Tyr)]
- IC50 (xanthine oxidase (XO); [2]): 23.8 ± 5.3 µM
- action of inhibiting a xanthine oxidase (in words) (xanthine oxidase (XO)): high action of inhibiting a xanthine oxidase
- Solubility in Water (Solubility in water): insoluble

Compound: NC(=O)CCC1NC(=O)C(Cc2ccccc2)NC1=O (stereo not shown) [Cyclo(Gln-Phe), reference compound]
- IC50 (xanthine oxidase (XO); [1]): > 300 µM

Compound: O=C(O)CC1NC(=O)C(Cc2ccccc2)NC1=O (stereo not shown) [Cyclo(Asp-Phe), reference compound]
- IC50 (xanthine oxidase (XO); [1]): > 300 µM

Compound: O=C1NC(Cc2cnc[nH]2)C(=O)NC1Cc1ccccc1 (stereo not shown) [Cyclo(His-Phe), reference compound]
- IC50 (xanthine oxidase (XO); [1]): > 100 µM

Compound: O=C1N[C@@H](Cc2ccc(O)cc2)C(=O)N2CCC[C@@H]12 [Cyclo(Pro-Tyr), cycloprolyltyrosine]
- Inhibition Rate (%) at Concentration of 100 μM (xanthine oxidase (XO)): 2.3%
- solubility in water (in words) (Solubility in water): high solubility in water
- Solubility in Water (Solubility in water): 1000 µM (≈ 260 µg/mL)

Compound: NCCCCC1NC(=O)C(Cc2ccccc2)NC1=O (stereo not shown) [Cyclo(Lys-Phe), reference compound]
- IC50 (xanthine oxidase (XO); [1]): > 300 µM

Compound: O=C1NC(Cc2ccccc2)C(=O)NC1Cc1ccccc1 (stereo not shown) [Cyclo(Phe-Phe), reference compound]
- IC50 (xanthine oxidase (XO); [1]): > 100 µM

Compound: O=C1N[C@@H](Cc2ccc(O)cc2)C(=O)N[C@H]1Cc1ccc(O)cc1 [Cyclo(Tyr-Tyr), cyclotyrosyltyrosine]
- IC50 (xanthine oxidase (XO); [2]): 29.5 ± 2.9 µM
- action of inhibiting a xanthine oxidase (in words) (xanthine oxidase (XO)): high action of inhibiting a xanthine oxidase
- Solubility in Water (Solubility in water): insoluble

Compound: O=C1NC(Cc2ccccc2)C(=O)NC1CS (stereo not shown) [Cyclo(Phe-Cys), reference compound]
- IC50 (xanthine oxidase (XO); [1]): 133 ± 25.2 µM

Compound: O=C1NC(Cc2ccc(O)cc2)C(=O)NC1CO (stereo not shown) [Cyclo(Ser-Tyr), cycloseryltyrosine]
- IC50 (xanthine oxidase (XO); [2]): 189 ± 52.5 µM
- Solubility in Water (Solubility in water): insoluble

Compound: O=C(O)CC[C@@H]1NC(=O)[C@H](Cc2ccc(O)cc2)NC1=O [Cyclo(Glu-Tyr), cycloglutamyltyrosine]
- Inhibition Rate (%) at Concentration of 100 μM (xanthine oxidase (XO)): 0.4%
- solubility in water (in words) (Solubility in water): high solubility in water
- Solubility in Water (Solubility in water): 5000 µM (≈ 1460 µg/mL)

Compound: C[C@@H](O)[C@@H]1NC(=O)[C@H](Cc2ccc(O)cc2)NC1=O [Cyclo(Thr-Tyr), cyclothreonyltyrosine]
- Inhibition Rate (%) at Concentration of 100 μM (xanthine oxidase (XO)): 2.6%
- solubility in water (in words) (Solubility in water): high solubility in water
- Solubility in Water (Solubility in water): 1000 µM (≈ 264 µg/mL)

Compound: CC1NC(=O)C(Cc2ccc(O)cc2)NC1=O (stereo not shown) [Cyclo(Ala-Tyr), cycloalanyltyrosine]
- Inhibition Rate (%) at Concentration of 100 μM (xanthine oxidase (XO)): 8.3%
- Solubility in Water (Solubility in water): insoluble

Compound: O=C(O)C[C@@H]1NC(=O)[C@H](Cc2ccc(O)cc2)NC1=O [Cyclo(Asp-Tyr), cycloaspartyltyrosine]
- IC50 (xanthine oxidase (XO); [2]): 172 µM
- solubility in water (in words) (Solubility in water): high solubility in water
- Solubility in Water (Solubility in water): 5000 µM (≈ 1390 µg/mL)

Compound: CC(C)C1NC(=O)C(Cc2ccc(O)cc2)NC1=O (stereo not shown) [Cyclo(Val-Tyr), cyclovalyltyrosine]
- IC50 (xanthine oxidase (XO); [2]): 79.4 ± 16.1 µM
- Solubility in Water (Solubility in water): insoluble

Compound: N=C(N)NCCCC1NC(=O)C(Cc2ccc(O)cc2)NC1=O (stereo not shown) [Cyclo(Arg-Tyr), cycloarginyltyrosine]
- IC50 (xanthine oxidase (XO); [2]): 211 µM
- solubility in water (in words) (Solubility in water): high solubility in water
- Solubility in Water (Solubility in water): 5000 µM (≈ 1600 µg/mL)

Compound: NCCCC[C@@H]1NC(=O)[C@H](Cc2ccc(O)cc2)NC1=O [Cyclo(Lys-Tyr), cyclolysyltyrosine]
- Inhibition Rate (%) at Concentration of 100 μM (xanthine oxidase (XO)): 25.7%
- solubility in water (in words) (Solubility in water): high solubility in water
- Solubility in Water (Solubility in water): 5000 µM (≈ 1460 µg/mL)

Compound: NC(=O)C[C@@H]1NC(=O)[C@H](Cc2ccc(O)cc2)NC1=O [Cyclo(Asn-Tyr), cycloasparaginyltyrosine]
- IC50 (xanthine oxidase (XO); [2]): 113 µM
- solubility in water (in words) (Solubility in water): high solubility in water
- Solubility in Water (Solubility in water): 1000 µM (≈ 277 µg/mL)

Compound: CC(O)C1NC(=O)C(Cc2ccccc2)NC1=O (stereo not shown) [Cyclo(Thr-Phe), reference compound]
- IC50 (xanthine oxidase (XO); [1]): > 300 µM

Compound: O=C1NC(Cc2ccccc2)C(=O)N2CCCC12 (stereo not shown) [Cyclo(Pro-Phe), reference compound]
- IC50 (xanthine oxidase (XO); [1]): > 100 µM
